Experimental data: BindingDB's records for doi:10.1016/j.bmc.2012.10.036 (Glaxosmithkline, 2012)

Assay: Inhibition of glucocorticoid receptor in human H13 cells assessed as inhibition of glucocorticoid-induced cell proliferation after 3 hrs by [3H]-thymidine incorporation assay

CC[C@H]1OC(=O)[C@H](C)[C@@H](O[C@H]2C[C@@](C)(OC)[C@@H](O)[C@H](C)O2)[C@H](C)[C@@H](O[C@@H]2O[C@H](C)C[C@H](N(C)C)[C@H]2O)[C@](C)(O)C[C@@H](C)CN(CCCNC(=O)[C@H]2[C@H](C)C[C@H]3[C@@H]4CCC5=CC(=O)C=C[C@]5(C)[C@@]4(F)[C@@H](O)C[C@@]32C)[C@H](C)[C@@H](O)[C@]1(C)O
EC50: 0.05 µM
